Source: US20240150293A1, “SPIROCYCLOHEXANE DERIVATIVES, PHARMACEUTICAL COMPOSITIONS CONTAINING THEM AND THEIR USES AS ANTI-APOPTOTIC INHIBITORS” (LES LABORATOIRES SERVIER, priority 2021, published 2024)
Where two headings read alike, the source gives them in different places.

Legend:
NCI-H929 cell lines = assay: In vitro cytotoxicity, CellTiter-Glo (CTG) assay (Example B, Method B); type: cell-based; conditions: NCI-H929 cells, 48 h incubation, read-out: C50
How it was run: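 ATP-based luminescence (CellTiter-Glo) after 48 h incubation at 37° C., 5% CO2 gave NCI-H929 viability. Eleven concentrations tested, highest final 30 μM, dispensed acoustically from 10 mM DMSO stocks; C50 defined as concentration reaching 50% viability.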

[1] = target: Cy5-labelled Mcl1 (amino acids 171-321) C286S protein (UniProtKB Q07820) (Homo sapiens (Human), UniProt Q07820, C286S); assay: Inhibition of Mcl-1 by the fluorescence quenching assay (Example A, Method B); type: binding
How it was run: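 Eleven-point compound series incubated 2 h at room temperature with 1 nM Cy5-tagged protein and quencher-labelled PUMA peptide at 10, 20 or 400 nM in HEPES/NaCl/Tween 20, pH 7.4, 5% DMSO. IC50 for 50% fluorescence increase by 4-parameter fit, then Ki derived (complete cKi or estimated eKi).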

Sequence of Cy5-labelled Mcl1 (amino acids 171-321) C286S protein (Q07820 171-321 C286S): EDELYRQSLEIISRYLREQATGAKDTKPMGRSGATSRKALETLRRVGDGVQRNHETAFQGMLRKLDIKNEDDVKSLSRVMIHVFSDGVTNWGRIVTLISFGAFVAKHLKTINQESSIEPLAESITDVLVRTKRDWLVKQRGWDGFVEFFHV

With `COc1ccc2c(c1)[C@]1(CC[C@@](Nc3cccc(Cl)c3)(C(=O)O)CC1)[C@H](C[C@@H](C)COc1ccnc3c1[C@H](C)CCC3)C2` [Example 782, (1r,2′R,4R)-4-(3-chloroanilino)-6′-methoxy-2′-[(2R)-2-methyl-3-{[(5R)-5-methyl-5,6,7,8-tetrahydroquinolin-4-yl]oxy}propyl]-2′,3′-dihydrospiro[cyclohexane-1,1′-indene]-4-carboxylic acid] the IC50 (NCI-H929 cell lines; Homo sapiens, NCI-H929, 48 h) was 235 nM and the Ki [1] was 0.254 nM.

For `CC(O)c1ccc2c(c1)[C@]1(CC[C@@](Nc3cccc(Cl)c3)(C(=O)O)CC1)[C@@H](C[C@@H](C)COc1ccnc3c1[C@H](C)CCC3)C2` (single isomer, unassigned) [Example 859], the IC50 (NCI-H929 cell lines) was 43.7 nM and the Ki [1] was 0.0375 nM.

Work on `C[C@@H](COc1ccnc2c1[C@H](C)CCC2)C[C@H]1Cc2ccc(-c3ccsc3)cc2[C@]12CC[C@@](Nc1cccc(Cl)c1)(C(=O)O)CC2` [Example 878, (1r,2′S,4S)-4-(3-chloroanilino)-2′-[(2R)-2-methyl-3-{[(5R)-5-methyl-5,6,7,8-tetrahydroquinolin-4-yl]oxy}propyl]-6′-(thiophen-3-yl)-2′,3′-dihydrospiro[cyclohexane-1,1′-indene]-4-carboxylic acid] yielded an IC50 (NCI-H929 cell lines; Homo sapiens, NCI-H929, 48 h) of 1110 nM and a Ki [1] of 0.386 nM.

With `CCOC(=O)[C@]1(Nc2cccc(Cl)c2)CC[C@@]2(CC1)c1cc3c(cc1C[C@@H]2C[C@@H](C)COc1ccnc2c1[C@H](C)CCC2)OCO3` [Example 930, ethyl (1r,4S,6′S)-4-(3-chloroanilino)-6′-[(2R)-2-methyl-3-{[(5R)-5-methyl-5,6,7,8-tetrahydroquinolin-4-yl]oxy}propyl]-6′,7′-dihydro-2′H-spiro[cyclohexane-1,5′-indeno[5,6-d][1,3]dioxole]-4-carboxylate] the IC50 (NCI-H929 cell lines; Homo sapiens, NCI-H929, 48 h) was over 30000 nM and the inhibition at 1 µM ([1]; @ 1 μM, read-out: Mcl-1 inhibition, % at a single concentration) was 4.5%.

`Cc1ccc2c(c1)CN(C[C@@H](C)COc1ccnc3c1[C@H](C)CCC3)[C@]21CC[C@](Nc2cccc(Cl)c2C)(C(=O)O)CC1` [Example 53, (1s,4S)-4-(3-chloro-2-methylanilino)-5′-methyl-2′-[(2R)-2-methyl-3-{[(5R)-5-methyl-5,6,7,8-tetrahydroquinolin-4-yl]oxy}propyl]-2′,3′-dihydrospiro[cyclohexane-1,1′-isoindole]-4-carboxylic acid] was tested, and the IC50 (NCI-H929 cell lines; Homo sapiens, NCI-H929, 48 h) was 451 nM and the Ki ([1]; Ki determined from IC50) was 1.5 nM.

Compound `CC[C@@H]1COc2cc3c(cc2O1)[C@]1(CC[C@@](Nc2cccc(Cl)c2)(C(=O)O)CC1)[C@@H](C[C@@H](C)COc1ccnc2c1[C@H](C)CCC2)C3` [Example 979, (1r,3′R,4S,7′S)-4-(3-chloroanilino)-3′-ethyl-7′-[(2R)-2-methyl-3-{[(5R)-5-methyl-5,6,7,8-tetrahydroquinolin-4-yl]oxy}propyl]-2′,3′,7′,8′-tetrahydrospiro[cyclohexane-1,6′-indeno[5,6-b][1,4]dioxine]-4-carboxylic acid] has an IC50 (NCI-H929 cell lines; Homo sapiens, NCI-H929, 48 h) of 67.2 nM and a Ki [1] of 0.0299 nM.

`COCC(=O)OC(C)OC(=O)[C@]1(Nc2cccc(Cl)c2)CC[C@@]2(CC1)c1cc3c(cc1C[C@@H]2C[C@@H](C)COc1ccnc2c1[C@H](C)CCC2)OCO3` (stereo partly drawn) [Example 941, 1-[(methoxyacetyl)oxy]ethyl (1r,4S,6′S)-4-(3-chloroanilino)-6′-[(2R)-2-methyl-3-{[(5R)-5-methyl-5,6,7,8-tetrahydroquinolin-4-yl]oxy}propyl]-6′,7′-dihydro-2′H-spiro[cyclohexane-1,5′-indeno[5,6-d][1,3]dioxole]-4-carboxylate] showed an IC50 (NCI-H929 cell lines; Homo sapiens, NCI-H929, 48 h) of 46.2 nM and a Ki [1] of 3.94 nM.

For `COC(=O)OCOC(=O)[C@]1(Nc2cccc(Cl)c2)CC[C@@]2(CC1)c1cc3c(cc1C[C@@H]2C[C@@H](C)COc1ccnc2c1[C@H](C)CCC2)OCO3` [Example 946, [(methoxycarbonyl)oxy]methyl (1r,4S,6′S)-4-(3-chloroanilino)-6′-[(2R)-2-methyl-3-{[(5R)-5-methyl-5,6,7,8-tetrahydroquinolin-4-yl]oxy}propyl]-6′,7′-dihydro-2′H-spiro[cyclohexane-1,5′-indeno[5,6-d][1,3]dioxole]-4-carboxylate], the IC50 (NCI-H929 cell lines; Homo sapiens, NCI-H929, 48 h) was 34.2 nM and the Ki [1] was 11 nM.

For `C[C@@H](COc1ccnc2c1[C@H](C)CC[C@H]2F)C[C@H]1Cc2cc3c(cc2[C@]12CC[C@@](Nc1cccc(Cl)c1)(C(=O)O)CC2)OCCO3` [Example 964, (1r,4S,7′S)-4-(3-chloroanilino)-7′-[(2R)-3-{[(5R,8R)-8-fluoro-5-methyl-5,6,7,8-tetrahydroquinolin-4-yl]oxy}-2-methylpropyl]-2′,3′,7′,8′-tetrahydrospiro[cyclohexane-1,6′-indeno[5,6-b][1,4]dioxine]-4-carboxylic acid], the IC50 (NCI-H929 cell lines; Homo sapiens, NCI-H929, 48 h) was 109 nM and the Ki [1] was 0.0579 nM.

With `C[C@@H](COc1ccnc2c1[C@H](C)CCC2)C[C@H]1Cc2cc(Cl)c(OC3CCCC3)cc2[C@]12CC[C@@](Nc1cccc(Cl)c1)(C(=O)O)CC2` [Example 821, (1r,2′S,4S)-5′-chloro-4-(3-chloroanilino)-6′-(cyclopentyloxy)-2′-[(2R)-2-methyl-3-{[(5R)-5-methyl-5,6,7,8-tetrahydroquinolin-4-yl]oxy}propyl]-2′,3′-dihydrospiro[cyclohexane-1,1′-indene]-4-carboxylic acid] the IC50 (NCI-H929 cell lines; Homo sapiens, NCI-H929, 48 h) was 536 nM and the Ki [1] was 0.408 nM.

In the case of `C[C@@H](COc1ccnc2c1[C@H](C)CCC2)C[C@H]1Cc2ccccc2[C@]12CC[C@@](Nc1ccc(Cl)c(Cl)c1)(C(=O)O)CC2` [Example 715, (1r,2′S,4S)-4-(3,4-dichloroanilino)-2′-[(2R)-2-methyl-3-{[(5R)-5-methyl-5,6,7,8-tetrahydroquinolin-4-yl]oxy}propyl]-2′,3′-dihydrospiro[cyclohexane-1,1′-indene]-4-carboxylic acid], the IC50 (NCI-H929 cell lines; Homo sapiens, NCI-H929, 48 h) is reported as 1290 nM and the Ki [1] is reported as 2.01 nM.

Compound `C[C@@H](COc1ccnc2c1[C@H](C)CCC2)C[C@H]1Cc2cc3c(cc2[C@]12CC[C@@](Nc1cccc(Cl)c1)(C(=O)OCCN(C)C)CC2)OCO3` [Example 935, 2-(dimethylamino)ethyl (1r,4S,6′S)-4-(3-chloroanilino)-6′-[(2R)-2-methyl-3-{[(5R)-5-methyl-5,6,7,8-tetrahydroquinolin-4-yl]oxy}propyl]-6′,7′-dihydro-2′H-spiro[cyclohexane-1,5′-indeno[5,6-d][1,3]dioxole]-4-carboxylate] has an IC50 (NCI-H929 cell lines; Homo sapiens, NCI-H929, 48 h) of 1900 nM and a Ki [1] of 5.46 nM.

`C[C@@H](COc1ccnc2c1[C@H](C)CCC2)C[C@H]1Cc2cc3c(cc2[C@]12CC[C@@](Nc1cccc(Cl)c1)(C(=O)O)CC2)OCC[C@H](C)O3` [Example 985, (1r,2′S,4S,8′S)-4-(3-chloroanilino)-2′-methyl-8′-[(2R)-2-methyl-3-{[(5R)-5-methyl-5,6,7,8-tetrahydroquinolin-4-yl]oxy}propyl]-3′,4′,8′,9′-tetrahydro-2′H-spiro[cyclohexane-1,7′-indeno[5,6-b][1,4]dioxepine]-4-carboxylic acid] was tested, and the IC50 (NCI-H929 cell lines; Homo sapiens, NCI-H929, 48 h) was 121 nM and the Ki [1] was 0.0955 nM.

`CCOc1cc2c(cc1Br)C[C@H](C[C@@H](C)COc1ccnc3c1[C@H](C)CCC3)[C@]21CC[C@](Nc2cccc(Cl)c2)(C(=O)O)CC1` [Example 817, (1r,2′S,4S)-5′-bromo-4-(3-chloroanilino)-6′-ethoxy-2′-[(2R)-2-methyl-3-{[(5R)-5-methyl-5,6,7,8-tetrahydroquinolin-4-yl]oxy}propyl]-2′,3′-dihydrospiro[cyclohexane-1,1′-indene]-4-carboxylic acid] showed an IC50 (NCI-H929 cell lines; Homo sapiens, NCI-H929, 48 h) of 165 nM and a Ki [1] of 0.229 nM.

`C[C@@H](COc1ccnc2c1[C@H](C)CCC2)C[C@H]1Cc2cc3c(cc2[C@]12CC[C@@](Nc1cccc(Cl)c1)(C(=O)O)CC2)O[C@@H](C)[C@H](C)O3` [Example 975, (1r,2′S,3'S,4S,7′S)-4-(3-chloroanilino)-2′,3′-dimethyl-7′-[(2R)-2-methyl-3-{[(5R)-5-methyl-5,6,7,8-tetrahydroquinolin-4-yl]oxy}propyl]-2′,3′,7′,8′-tetrahydrospiro[cyclohexane-1,6′-indeno[5,6-b][1,4]dioxine]-4-carboxylic acid] gave an IC50 (NCI-H929 cell lines; Homo sapiens, NCI-H929, 48 h) of 80.2 nM and a Ki [1] of 0.0244 nM.

For `CC(C)C1COc2cc3c(cc2OC1)[C@]1(CC[C@@](Nc2cccc(Cl)c2)(C(=O)O)CC1)[C@@H](C[C@@H](C)COc1ccnc2c1[C@H](C)CCC2)C3` (single isomer, unassigned) [Example 992], the IC50 (NCI-H929 cell lines; Homo sapiens, NCI-H929, 48 h) was 184 nM and the Ki [1] was 0.0795 nM.

With `C[C@@H](COc1ccnc2c1[C@H](C)CCC2)CC1Cc2c(Cl)c(Cl)ccc2[C@]12CC[C@@](Nc1cccc(Cl)c1)(C(=O)O)CC2` (single isomer, unassigned) [Example 752] the IC50 (NCI-H929 cell lines) was 344 nM and the Ki [1] was 0.321 nM.

Work on `C[C@@H](COc1ccnc2c1[C@H](C)CCC2)C[C@H]1Cc2cc3c(cc2[C@]12CC[C@@](Nc1cccc(Cl)c1)(C(=O)O)CC2)O[C@@H](C)CCO3` [Example 984, (1r,4S,4'S,8′S)-4-(3-chloroanilino)-4′-methyl-8′-[(2R)-2-methyl-3-{[(5R)-5-methyl-5,6,7,8-tetrahydroquinolin-4-yl]oxy}propyl]-3′,4′,8′,9′-tetrahydro-2′H-spiro[cyclohexane-1,7′-indeno[5,6-b][1,4]dioxepine]-4-carboxylic acid] yielded an IC50 (NCI-H929 cell lines; Homo sapiens, NCI-H929, 48 h) of 35.5 nM and a Ki [1] of 0.00728 nM.

For `CCC1COc2cc3c(cc2OC1)[C@]1(CC[C@@](Nc2cccc(Cl)c2)(C(=O)O)CC1)[C@@H](C[C@@H](C)COc1ccnc2c1[C@H](C)CCC2)C3` (single isomer, unassigned) [Example 989], the IC50 (NCI-H929 cell lines) was 88.5 nM and the Ki [1] was 0.0288 nM.
